Experimental findings from PMC9501525, “Conjugation of a Cationic Cell-Penetrating Peptide with a Novel Kunitzin-like Trypsin Inhibitor: New Insights for Enhancement of Peptide Bioactivities” (Pharmaceutics, 2022) are described below.

Common to all, as to format: cell-based
The subject of data set [1] is U251MG human glioblastoma cells. Kind of data set: MTT cell antiproliferation assay. Particulars: 24 h of treatment, serum free medium, 10^−9–10^−4 M. On the procedure:
(§1) The antiproliferative activities of the synthesized peptides were assessed on six human cancer cell lines (PC-3, H157, H460, H838, MCF-7, U251MG) and two human normal cell lines (HMEC-1 and MRC-5) using the MTT cell viability assay. Human lung cancer cells (H838, H157, and H460) and human prostate cancer cells (PC-3) were cultured in complete growth medium (CGM) (Roswell Park Memorial Institute (RPMI) 1640 Medium (Gibco, Paisley, UK): Fetal bovine serum (FBS) (Gibco, Campinas, Brazil): Penicillin-streptomycin solution (PS) (Gibco, Grand Island, NY, USA) 89/10/1 v/v/v). Human glioblastoma astrocytoma (U251MG) and human breast cancer cell (MCF-7) were cultured in complete growth medium (Dulbecco’s Modified Eagle medium (DMEM) (Gibco, Paisley, UK): FBS: PS 89/10/1 v/v/v). Human microvascular endothelial cells (HMEC-1) and human pulmonary fibroblast cells (MRC-5) were cultured in MCDB131 medium (supplemented with 10% FBS, 1% PS, 10 ng/mL epidermal growth factor, 1 µg/mL hydrocortisone, and 10 mM glutamine) and Eagle’s Minimal Essential Medium (EMEM) (supplemented with 10% FBS and 1% PS), respectively. Cell suspension, containing 8 × 10^3 cells per 100 µL, was first added to 96-well plates for overnight incubation. Then, the adherent cells in the 96-well plates were subject to cell starvation using the serum free medium treatment for at least 4 h to ensure that the cells were all in the same growth cycle. The peptide solutions, with final concentrations of 10^−9–10^−4 M, were prepared with serum free medium and added onto the plate. In addition, Triton X-100 (0.1%) (Sigma-Aldrich, St. Louis, MO, USA) was used as a positive control. After 24 h of administration, the MTT solution was added to the plate and incubated for 2 h. Then, the supernatant was discarded and DMSO was added to dissolve the purple formazan crystals. The absorbance was measured in all wells using the Synergy HT plate reader at a wavelength of 570 nm.
Background: Formazan colour is commonly taken as a measure of viable cells.

The subject of data set [2] is MCF-7 human breast cancer cells. The data set is described as follows: MTT cell antiproliferation assay. Particulars: MCF-7, MTT, 24 h of treatment, serum free medium, 10^−9–10^−4 M. On the procedure:
as §1

Data set [3] relates to MRC-5 human pulmonary fibroblast cells. Kind of data set: LDH cytotoxicity assay. The settings on record: MRC-5, 24 h, highest test concentration 100 µM; relative to lysis buffer maximum. On the procedure: A CyQUANT™ LDH Cytotoxicity Detection Kit (Thermo Fisher Scientific, Waltham, MA, USA) was used to detect the LDH released from human microvascular endothelial cell line (HMEC-1) and human pulmonary fibroblast cell line (MRC-5). Cells were cultured as for the MTT antiproliferation assay described previously. After incubation, the peptide solutions at the same concentrations as in the previous method were added to the cells for further incubation of 24 h. Among these, the positive control group, representing the maximal LDH release, was obtained from the 10 × lysis buffer supplied in the kit. The lysis buffer was added to the control group and co-cultured for 45 min, while deionized water was added to the spontaneous LDH release control. Subsequently, the same volume of sample as the reaction mixture was withdrawn, added into a new 96-well plate, and mixed well. After co-culturing under dark conditions for 30 min, an equal amount of stop solution was added to stop the reaction. Absorbance values of all experimental groups were measured at wavelengths of 490 and 680 nm using the Synergy HT plate reader.

Peptide text beside a SMILES is read from it.

A word on the IC50: it is the midpoint of a concentration-inhibition curve. On to `CC(C)C[C@H](NC(=O)[C@H](CCCCN)NC(=O)[C@H](C)NC(=O)[C@H](C)NC(=O)CNC(=O)CNC(=O)[C@H](CCCNC(=N)N)NC(=O)[C@H](CCCNC(=N)N)NC(=O)[C@H](CCCNC(=N)N)NC(=O)[C@H](CCC(N)=O)NC(=O)[C@H](CCCNC(=N)N)NC(=O)[C@H](CCCNC(=N)N)NC(=O)[C@H](CCCCN)NC(=O)[C@H](CCCCN)NC(=O)[C@@H](N)CCCNC(=N)N)C(=O)N1CCC[C@H]1C(=O)N[C@@H](Cc1ccccc1)C(=O)N[C@@H](CCCNC(=N)N)C(=O)N[C@H]1CSSC[C@@H](C(=O)O)NC(=O)[C@H](Cc2ccccc2)NC(=O)[C@H](C)NC(=O)[C@H](C)NC(=O)[C@H](Cc2ccccc2)NC1=O` [TAT-F9-KOV2] (HELM PEPTIDE1{R.K.K.R.R.Q.R.R.R.G.G.A.A.K.L.P.F.R.C.F.A.A.F.C}$PEPTIDE1,PEPTIDE1,19:R3-24:R3$$$V2.0), for which the IC50 came out at 7.6 µM in data set [1] and 11.7 µM in data set [2]. The LDH release result in data set [3] is reported as “more than 10%”.
